Counter-ions that a name gives are not always drawn. Like-named read-outs stand apart in the source and are kept apart here.
Molecular target: NK-1 receptor (Homo sapiens, UniProt P25103)
Test: NK-1 receptor-binding test ([3H]-Substance P, hNK1-CHO cells)
Parameters: expressed in transfected cells; host or cells: CHO-K1 cells (ATCC: CCL-61), G418-resistant, hNK1-CHO
Protocol: 1. NK-1 Receptor-binding Test
1) Preparation of Human NK-1 Receptor Expression Cells
FuGene 6 transfection reagent (Boegringer Mannheim) (3 μL) was diluted in an F-12 culture broth (97 μL), and pCR3.1 plasmid to which human NK-1 receptor cDNA had been introduced (Invitrogen) (10 μL) was added thereto. The mixture was mixed and incubated for 15 minutes (transfection reagent). CHO-K1 cells (ATCC: CCL-61) were cultured for 24 hours, and the whole reagent prepared above was added to the cultured CHO-K1 cells ([…]). Subsequently, culture was performed in the presence of G418 (Stratagene), and the resistant cells were employed as cells into which human NK-1 receptor gene was introduced (hNK1-CHO).
2) Subcultivation of hNK1-CHO Cells
The hNK1-CHO cells were treated with trypsin-EDTA and subcultivated in an F-12 culture broth (containing 10% fetal bovine serum, 10 mM HEPES, 100 U/mL, penicillin, 100 μg/mL streptmycin, 400 μg/mL G418) in a 75-cm^2 flask (FALCON). Cells to be employed in the receptor-binding experiment were added to a 24-well plate (IWAKI) at 1×10^5 cells/well, and subcultured for 48 hours at 37° C. under 95% […] and 5% CO2.
3) Receptor-binding Experiment
When the hNK1-CHO cells became subconfluent on the 24-well plate, an F-12 culture broth (containing 10 mM HEPES and 0.1% fetal bovine serum) (450 μL), [^3H]-Substance P (Amersham, final concentration 0.5 nM), and a test compound were added to the cells, and the mixture was incubated for 40 minutes at 37° C. For the measurement of non-specific binding, L703606 (Sigma) was added instead of the test compound. After completion of incubation, the mixture was washed with ice-cooled phosphate buffered saline containing 0.1% fetal bovine serum, and the cells were lysed with 1N NaOH (0.5 mL). The lysate was transfered to a plastic vial containing UltimaGold MV (5 mL), and the radioactivity was determined by means of a liquid liquid scintillation counter (Packard, 2000CA).
Percent radioactive ligand-receptor binding inhibition of each test compound was calculated by use of the following equation, and IC50 (nM) was determined through pseudo-Hill analysis.
Percent inhibition (%)=[1−(C−A)/(B−A)]×100
A: Radioactivity attributed to non-specific binding
B: Radioactivity without test compound
C: Radioactivity with test compound

[1] = Table 2, inhibition of [3H]-Substance P (0.5 nM) binding to hNK1-CHO cells, pseudo-Hill analysis, read-out: NK-1

NK-1 receptor, sequence (P25103 whole entry): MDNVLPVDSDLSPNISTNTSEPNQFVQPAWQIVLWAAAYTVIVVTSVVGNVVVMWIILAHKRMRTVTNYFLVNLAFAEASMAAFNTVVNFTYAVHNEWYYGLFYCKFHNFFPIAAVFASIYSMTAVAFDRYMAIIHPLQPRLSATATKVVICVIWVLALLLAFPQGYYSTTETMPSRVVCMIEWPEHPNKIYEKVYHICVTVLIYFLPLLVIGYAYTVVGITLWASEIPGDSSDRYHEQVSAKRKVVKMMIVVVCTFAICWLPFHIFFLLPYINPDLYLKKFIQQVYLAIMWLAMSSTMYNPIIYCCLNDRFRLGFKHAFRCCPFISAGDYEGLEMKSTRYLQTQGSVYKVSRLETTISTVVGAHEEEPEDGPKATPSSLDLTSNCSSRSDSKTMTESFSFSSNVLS

How did the IC50 [1] turn out when `COc1cc(COC[C@](CCCN2CCC3(CC2)c2ccccc2C[S@+]3[O-])(c2ccc(Cl)c(Cl)c2)N(C)C(=O)NCc2ccccc2F)cc(OC)c1OC` [Compound No. 617, 1-{1-(3,4,5-trimethoxybenzyloxy)-2-(S)-(3,4-dichlorophenyl)-5-[spiro(benzo(c)thiophene(2S)-oxido-1(3H),4′-piperidin)-1′-yl]pentan-2-yl}-3-(2-fluorobenzyl)-1-methylurea hydrochloride] was run?
The IC50 was 0.54 nM.

For `COc1cc(COC[C@](CCCN2CCC3(CC2)c2ccccc2C[S@+]3[O-])(c2ccc(Cl)c(Cl)c2)N(C)C(=O)Nc2cccc(C(F)(F)F)c2)cc(OC)c1OC` [Compound No. 616, 1-{1-(3,4,5-trimethoxybenzyloxy)-2-(S)-(3,4-dichlorophenyl)-5-[spiro(benzo(c)thiophene-(2S)-oxido-1(3H),4′-piperidin)-1′-yl]pentan-2-yl}-3-[3-(trifluoromethyl)phenyl]-1-methylurea hydrochloride], which IC50 [1] is on record?
Its IC50 is 2 nM.

Which IC50 does the source give for `COc1ccc(OC(=O)N(C)[C@](CCCN2CCC3(CC2)c2ccccc2C[S@+]3[O-])(CN(C)C(=O)CC(F)(F)F)c2ccc(Cl)c(Cl)c2)cc1` [Compound No. 640, 4-methoxyphenyl{1-(3,3,3-trifluoro-N-methylpropanamido)-2-(s)-(3,4-dichlorophenyl)-5-[spiro(benzo(c)thiophene-(2S)-oxido-1(3H),4′-piperidin)-1′-yl]pentan-2-yl}methylcarbamate hydrochloride] here?
Its IC50 is 6 nM.

`CN(C[C@](CCCN1CCC2(CC1)c1ccccc1C[S@+]2[O-])(c1ccc(Cl)c(Cl)c1)N(C)C(=O)Oc1ccc(F)cc1)C(=O)CC(F)(F)F` [Compound No. 639, 4-fluorophenyl{1-(3,3,3-trifluoro-N-methylpropanamido)-2-(S)-(3,4-dichlorophenyl)-5-[spiro(benzo(c)thiophene-(2S)-oxido-1(3H),4′-piperidin)-1′-yl]pentan-2-yl}methylcarbamate hydrochloride] was tested. Which IC50 did it give?
The IC50 was 4 nM.

`COc1cc(COC[C@](CCCN2CCC3(CC2)c2ccccc2C[S@+]3[O-])(c2ccc(Cl)c(Cl)c2)N(C)C(=O)Nc2cccc(F)c2)cc(OC)c1OC` [Compound No. 615, 1-{1-(3,4,5-trimethoxybenzyloxy)-2-(S)-(3,4-dichlorophenyl)-5-[spiro(benzo(c)thiophene-(2S)-oxido-1(3H),4′-piperidin)-1′-yl]pentan-2-yl}-3-(3-fluorophenyl)-1-methylurea hydrochloride] was tested. Which IC50 [1] did it give?
Its IC50 is 0.58 nM.

With `CN(C[C@](CCCN1CCC2(CC1)c1ccccc1C[S@+]2[O-])(c1ccc(Cl)c(Cl)c1)N(C)C(=O)Oc1ccccc1)C(=O)CC(F)(F)F` [Compound No. 591, phenyl{1-(3,3,3-trifluoro-N-methylpropanamido)-2-(S)-(3,4-dichlorophenyl)-5-[spiro(benzo(c)thiophene-(2S)-oxido-1(3H),4′-piperidin)-1′-yl]pentan-2-yl}methylcarbamate hydrochloride] as the compound, how does the IC50 read?
Its IC50 is 6.9 nM.

`COc1cc(COC[C@](CCCN2CCC3(CC2)c2ccccc2C[S@+]3[O-])(c2ccc(Cl)c(Cl)c2)N(C)C(=O)NCc2ccc(F)cc2)cc(OC)c1OC` [Compound No. 621, 1-{1-(3,4,5-trimethoxybenzyloxy)-2-(S)-(3,4-dichlorophenyl)-5-[spiro(benzo(c)thiophene(2S)-oxido-1(3H),4′-piperidin)-1′-yl]pentan-2-yl}-3-(4-fluorobenzyl)-1-methylurea hydrochloride] was tested. Which IC50 [1] did it give?
Its IC50 is 0.94 nM.

Which IC50 does the source give for `CN(C[C@](CCCN1CCC2(CC1)c1ccccc1C[S@+]2[O-])(c1ccc(Cl)c(Cl)c1)N(C)C(=O)Oc1ccccc1F)C(=O)CC(F)(F)F` [Compound No. 638, 2-fluorophenyl{1-(3,3,3-trifluoro-N-methylpropanamido)-2-(S)-(3,4-dichlorophenyl)-5-[spiro(benzo(c)thiophene-(2S)-oxido-1(3H),4′-piperidin)-1′-yl]pentan-2-yl}methylcarbamate hydrochloride] here?
The IC50 was 6 nM.

How did the IC50 turn out when `CN(C[C@](CCCN1CCC(C(N)=O)(c2ccccc2)CC1)(c1ccc(Cl)c(Cl)c1)N(C)C(=O)Oc1ccccc1)C(=O)C(F)(F)F` [Compound No. 578, phenyl[1-(2,2,2-trifluoro-N-methylacetamide)-2-(S)-(3,4-dichlorophenyl)-5-(4-carbamoyl-4-phenylpiperidine-1′-yl)pentan-2-yl]methylcarbamate hydrochloride] was run?
Its IC50 is 9.5 nM.

Which IC50 [1] does the source give for `COc1cc(COCC(CCCN2CCC(C(N)=O)(c3ccccc3)CC2)(c2ccc(Cl)c(Cl)c2)N(C)C(=O)Nc2ccccc2)cc(OC)c1OC` (racemic) [Compound No. 15, 1-[4-(3,4-Dichloro-phenyl)-4-(1-methyl-3-phenyl-ureido)-5-(3,4,5-trimethoxy-benzyloxy)-pentyl]-4-phenyl-piperidine-4-carboxylic acid amide] here?
Its IC50 is 0.9 nM.

With `COc1cc(COC[C@](CCCN2CCC3(CC2)c2ccccc2C[S@+]3[O-])(c2ccc(Cl)c(Cl)c2)N(C)C(=O)NC2CCCCC2)cc(OC)c1OC` [Compound No. 599, 1-{1-(3,4,5-trimethoxybenzyloxy)-2-(S)-(3,4-dichlorophenyl)-5-[spiro(benzo(c)thiophene-(2S)-oxido-1(3H),4′-piperidin)-1′-yl]pentan-2-yl}-3-cyclohexyl-1-methylurea hydrochloride] as the compound, how does the IC50 [1] read?
Its IC50 is 0.73 nM.

With `CN(C[C@](CCCN1CCC2(CC1)c1ccccc1C[S@+]2[O-])(c1ccc(Cl)c(Cl)c1)N(C)C(=O)Oc1cccc(Cl)c1Cl)C(=O)CC(F)(F)F` [Compound No. 653, 2,3-dichlorophenyl{1-(3,3,3-trifluoro-N-methylpropanamido)-2-(S)-(3,4-dichlorophenyl)-5-[spiro(benzo(c)thiophene-(2S)-oxido-1(3H),4′-piperidin)-1′-yl]pentan-2-yl}methylcarbamate hydrochloride] as the compound, how does the IC50 read?
Its IC50 is 1.6 nM.

For `CN(C[C@](CCCN1CCC2(CC1)c1ccccc1C[S@+]2[O-])(c1ccc(Cl)c(Cl)c1)N(C)C(=O)Oc1ccc(Cl)c(Cl)c1)C(=O)CC(F)(F)F` [Compound No. 654, 3,4-dichlorophenyl{1-(3,3,3-trifluoro-N-methylpropanamido)-2-(S)-(3,4-dichlorophenyl)-5-[spiro(benzo(c)thiophene-(2S)-oxido-1(3H),4′-piperidin)-1′-yl]pentan-2-yl}methylcarbamate hydrochloride], which IC50 is on record?
Its IC50 is 3 nM.

How did the IC50 turn out when `COc1ccccc1OC(=O)N(C)[C@](CCCN1CCC2(CC1)c1ccccc1C[S@+]2[O-])(CN(C)C(=O)CC(F)(F)F)c1ccc(Cl)c(Cl)c1` [Compound No. 636, 2-methoxyphenyl{1-(3,3,3-trifluoro-N-methylpropanamido)-2-(S)-(3,4-dichlorophenyl)-5-[spiro(benzo(c)thiophene-(2S)-oxido-1(3H),4′-piperidin)-1′-yl]pentan-2-yl}methylcarbamate hydrochloride] was run?
Its IC50 is 0.9 nM.

How did the IC50 turn out when `Cc1ccc(OC(=O)N(C)[C@](CCCN2CCC3(CC2)c2ccccc2C[S@+]3[O-])(CN(C)C(=O)CC(F)(F)F)c2ccc(Cl)c(Cl)c2)cc1` [Compound No. 652, 4-tolyl{1-(3,3,3-trifluoro-N-methylpropanamido)-2-(S)-(3,4-dichlorophenyl)-5-[spiro(benzo(c)thiophene-(2S)-oxido-1(3H),4′-piperidin)-1′-yl]pentan-2-yl}methylcarbamate hydrochloride] was run?
Its IC50 is 2.7 nM.

Source: patent publication US7276511B2, “Benzylamine derivative” (Zeria Pharmaceutical Co., Ltd., priority 2003, dated 2007)
